# Reference: patent US5344846A, “Compositions and methods for inhibiting deoxyhypusine synthase and the growth of cells” (The United States of America as represented by the …, priority 1992, dated 1994)
# Entries after “also recorded” stand apart in the source; their conditions may differ.
# Columns and labels:
# [1] = target: T1, deoxyhypusine synthase from rat testis (Rattus norvegicus, UniProt Q6AY53); settings: cited from earlier work
# T1 construct: as catalyzed by deoxyhypusine synthase from rat testis; from tissue; host or cells: rat testis
# T1 sequence (Q6AY53 1-369): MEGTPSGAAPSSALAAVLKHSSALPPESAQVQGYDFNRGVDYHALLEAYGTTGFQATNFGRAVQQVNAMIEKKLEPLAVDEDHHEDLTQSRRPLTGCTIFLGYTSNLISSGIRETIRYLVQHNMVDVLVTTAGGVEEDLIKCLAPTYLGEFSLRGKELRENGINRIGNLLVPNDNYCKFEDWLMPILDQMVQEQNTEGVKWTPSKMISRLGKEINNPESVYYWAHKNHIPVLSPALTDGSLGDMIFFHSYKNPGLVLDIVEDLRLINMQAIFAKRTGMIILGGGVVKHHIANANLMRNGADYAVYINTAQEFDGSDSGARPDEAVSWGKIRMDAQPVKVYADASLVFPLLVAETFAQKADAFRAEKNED
# deoxyhypusine synthase [2] = target: T2, deoxyhypusine synthase (Rattus norvegicus, UniProt Q6AY53); settings: earlier publications; cited from earlier work
# T2 construct: full-length homotetramer; substrate was human eIF-5A precursor expressed in E. coli
# T2 sequence (Q6AY53 1-369): T1 sequence (Q6AY53 1-369)
# [3] = target: T1, deoxyhypusine synthase from rat testis; test: Inhibition of deoxyhypusine synthase ([3H]deoxyhypusine formation from [3H]spermidine), IC50/Ki; type: biochemical; settings: for inhibition of deoxyhypusine synthase (in words): pH 9.3, 37° C., 1 hour, 2.4 μM [3H]spermidine; for relative inhibitory potency (in words): comparison with parent amine, bisguanylated counterpart or another inhibitor
# Experimental: The enzyme assay was performed as previously described (see Wolff et al. (1990) J. Biol. Chem. 265:4793-4799; and Park et al. (1991) J. Biol. Chem. 266:7988-7994). A typical assay mixture included 0.2M glycine, 1 mM dithiothreitol, 0.5 mM NAD^+, 2.4 micromolar (μM) [1,8-^3 H] spermidine, 1 μM ec-eIF-5A(Lys), 25 micrograms (μg) bovine serum albumin, and 3-15 units of enzyme in a total volume of 20 microliters (μl). Incubations were carried out at pH 9.3 and 37° C. for 1 hour. […] Percent inhibition was plotted versus log inhibitor concentration in order to obtain graphic estimates of IC50 values, i.e., the concentrations inhibiting [^3 H]deoxyhypusine production by 50%. The IC50 values reported in the tables were calculated by fitting the data points to equation 1 where x=% inhibition and I is the inhibitor concentration. [formula] The nature of the inhibition was determined by plotting reciprocal velocities of [^3 H]deoxyhypusine production against reciprocals of [^3 H]spermidine concentrations at a constant fixed level of ec-eIF-5A(Lys) (1 μM) and at set inhibitor concentrations. […] Estimates of Ki values were made by fitting the data to equation 2; wherein v is the velocity of the reaction, V is the maximum velocity, S is the substrate concentration, Km is Michaeli's constant, Ki is the inhibition constant, and I is the inhibitor concentration. [formula] All fits were performed by means of an interactive curve-fitting program, MLAB, developed and modified at the National Institutes of Health to run on an IBM personal computer.
# [4] = test system: deoxyhypusine synthase from HTC cells; settings: cited from earlier work; for inhibition of deoxyhypusine synthase: 20 μM inhibitor, 1 μM spermidine, precursor from DFMO-treated HTC cells
# [5] = cited from earlier work
# [6] = test system: pea seedling diamine oxidase; settings: cited from earlier work
# [7] = test system: oat seedling polyamine oxidase; settings: cited from earlier work
# deoxyhypusine synthase [8] = settings: cited from earlier work
# deoxyhypusine synthase [9] = target: T2, deoxyhypusine synthase; test: Substrate property for deoxyhypusine synthase; type: biochemical; settings: conditions similar to those for N-(3-aminopropyl)cadaverine
# Experimental: (See Wolff et al. (1990) J. Biol. Chem. 265:4793-4799.) The Km(app) values for the substrates, spermidine, NAD^+ and eIF-5A precursor from spermidine-depleted CHO cells, have been calculated as approximately 4, 30, and 0.08 μM, respectively.
# This finding is consistent with the conclusion that this lysine is the only one in the precursor that is converted to hypusine, both in cells and in the enzyme reaction in vitro.
Compound,inhibition of deoxyhypusine synthase (in words) [3],inhibition of deoxyhypusine synthase [4] [%],pKa of N8-amino group [5],relative inhibitory potency (in words) [3],substrate property for deoxyhypusine synthase (deoxyhypusine synthase [9]),further results
"16-membered peptide: modeled on residues 40-55 of the human eIF-5A precursor protein and encompassing Lys^50 (IVEMSTSKTGKHGHAK; UniProt P63241 40-55, looked up, fragment)",,,,,,inhibition by precursor-related peptide [1]: only weak inhibition; substrate or cofactor function for deoxyhypusine synthase (deoxyhypusine synthase [2]): failed to act as a substrate
"NCCCNCC(F)(F)CCN [Compound 37, 6,6-difluorospermidine]",quite strong inhibitors; also recorded: effective inhibition; also recorded: act as inhibitors,90,9.29,,,"Ki (in words) ([4]; HTC cell enzyme): very close to that for 1,3-diaminopropane and to the Km value for spermidine; pKa of N1-amino group ([5]; N1-amino group): 10.34"
"NCCCNCCC(F)(F)CN [Compound 38, 7,7-Difluorospermidine]",devoid of inhibitory activity; also recorded: no inhibition,0,6.64,,,
"N=C(N)NCCCCCCCCNCCCCCCCCNC(=N)N [Compound 40, guazatine]",,,,,,inhibition of pea seedling diamine oxidase [6]: known to inhibit; inhibition of oat seedling polyamine oxidase [7]: known to inhibit; inhibition of deoxyhypusine synthase (literature) (deoxyhypusine synthase [8]): strong inhibitor
"N=C(N)NCCCNCCCCN [Compound 51, N^1 -guanylspermidine]",high affinities for the enzyme,,,exceeded bisguanylated spermidine (compound 53) as inhibitors; also recorded: uniformly more efficient inhibition,Neither displayed any detectable substrate property,
"N=C(N)NCCCCNCCCN [Compound 52, N^8 -guanylspermidine]",high affinities for the enzyme,,,exceeded bisguanylated spermidine (compound 53) as inhibitors; also recorded: uniformly more efficient inhibition; also recorded: somewhat more effective inhibitor than N^1 -guanylspermidine (compound 51),"Neither displayed any detectable substrate property; also recorded: If it were, it would function as a substrate which it does not",
